The record followed here is patent US11167015B2, “Arginine and its use as a T cell modulator” (INSTITUTE FOR RESEARCH IN BIOMEDICINE, priority 2016, dated 2021).

Test [1] relates to human naïve CD4+ T cells. The experiment in a line: kinetic metabolome analysis of activated T cells. Type of test: cell-based. Conditions: L-arginine in medium increased 4-fold (1 mM standard), all time points.
Protocol: (B) Differential analysis of the glycolytic pathway between naïve CD4^+ T cells cultured in L-Arg medium or Ctrl medium, 96 h after activation. Log 2 fold changes of proteins and metabolites are color-coded. […] 3-P-Glycerate and 2-P-Glycerate could not be distinguished as they have the same mass. (C) 72 h-activated T cells were plated in fresh medium and glucose consumption was determined enzymatically after 24 h; n=9 from three donors. (D) Seahorse experiment performed with activated (96 h) T cells from one donor. Oligomycin was injected after 56 min, FCCP after 96 min, and antimycin (to inhibit the respiratory chain) after 136 min. Data are representative of 5 independent experiments with different donors.
Naïve CD4^+ T cells were either analyzed directly after isolation or at different time points after activation with CD3 and CD28 antibodies. Cells were washed twice in 96-well plates with 75 mM ammonium carbonate at pH 7.4 and snap frozen in liquid nitrogen. Metabolites were extracted three times with hot (>70° C.) 70% ethanol. Extracts were analyzed by flow injection—time of flight mass spectrometry on an Agilent 6550 QTOF instrument operated in the negative mode, as described previously (Fuhrer et al., 2011). Typically 5,000-12,000 ions with distinct mass-to-charge (m/z) ratio could be identified in each batch of samples. Ions were putatively annotated by matching their measured mass to that of the compounds listed by the KEGG database for Homo sapiens, allowing a tolerance of 0.001 Da. Only deprotonated ions (without adducts) were considered in the analysis. In case of multiple matching, such as in the case of structural isomers, all candidates were retained.
The subject of another test is activated CD4+ T cells. The test can be described thus: IL-2 withdrawal assay and assessment of cell viability, CD4+ T cells. Type of test: cell-based, human. The method, then: Naïve CD4 T cells were activated with plate-bound CD3 and CD28 antibodies. 48 h after activation IL-2 was added to culture media (500 U ml^−1). After a further 3 days of culturing, cells were washed, counted and equal cell numbers were plated in medium devoid of IL-2. The withdrawal medium was no longer supplemented with e.g. L-arginine. Cell viability was assessed with annexin V.

For another test, the system named is B16.OVA melanoma. The experiment in a line: Tumor experiment: in vivo priming of T cells, oral L-arginine. Details: species or system C57BL/6 mice. Conditions: mice fed with L-arginine 1.5 mg/g body weight daily vs PBS. How it is done:
B16-OVA melanoma cells were cultured and injected into Wt C57BL/6 mice as described above. Five clays post injection, when tumors were very small, mice were γ-irradiated (5 Gy) and 24 hours later they received 4×10^5 OT-I cells intravenously (i.v.). The clay after mice were immunized intraperitoneally (i.p.) with […] peptide (OVA257-264) in Inject Alum Adjuvant (Thermo Fisher Scientific). L-Arg (1.5 g/Kg body weight) or PBS, as control, was daily orally administrated, starting one clay before T cell transfer and until the end of the experiment. The size of tumors was measured in a blinded fashion using calipers.

Another test has as its system OT-I T cells. The test can be described thus: Adoptive T cell transfer and survival experiment. In kind it is in vivo. The note with it: activated 4 days in L-Arg medium, transfer into Cd3e−/− mice. How it is done: CD90.1^+ CD45.1/2^+ OT-I cells were activated with plate-bound antibodies to CD3 and CD28 in control medium. OT-I cells with a different congenic marker (CD90.1^+ CD45.1^+) were activated in L-arginine-supplemented medium. At day 4, equal cell numbers were injected into the tail vein of Cd3e^−/− host mice. To study the expansion of OT-I effector cells, host mice were sacrificed after 1, 3, 6, and 10 days post transfer and CD90.1^+ OT-I T cells from lymphoid organs (spleen and lymph nodes) were enriched with anti-CD90.1 micro beads (Miltenyi Biotec), stained and analysed by FACS. The following monoclonal antibodies were used α-CD8α (53-6.7), α-CD44 (1M7), α-CD62L (MEL-14), α-CD90.1 (OX-7), α-CD90.2 (30-H12), α-CD45.1 (A20), α-CD45.2 (104).

In test [2] the test system is human naïve CD4+ T cells. The experiment in a line: Nitric oxide formation measured using DAF-FM diacetate. In kind it is cell-based. Conditions: L-arginine-supplemented medium vs normal medium. The method, then:
FIG. 9. Impact of L-citrulline on metabolism, Related to FIG. 3. (A) Human naïve CD4^+ T cells were activated in normal medium or in L-Arg medium. Nitric oxide formation was measured using DAF-FM diacetate at different time points. (B) T cells were activated in control medium (Ctrl, containing 1 mM L-arginine), or in medium supplemented with 3 mM L-arginine (L-Arg) or 3 mM L-citrulline (L-Cit) and harvested at different time points. […] Shown are only metabolites with a log 2 fold change >1 and an adjusted p value of <0.05. n=6 from one donor. Log 2 fold change between 0 and >+2 for L-Orn, L-Arg and L-Cit exemplarily indicated as “high”.

Test [3] deals with human naïve CD4+ T cells. The test can be described thus: CCR7 expression by flow cytometry. Conditions: day 10 after activation, L-arginine supplemented vs control cultures. In kind it is cell-based. The method, then: FIG. 4. L-arginine limits human T cell differentiation and endows cells with a high survival capacity in vitro. (A, B) Human naïve CD4^+ T cells were activated in L-Arg medium or Ctrl medium in the presence of 10 ng/ml IL-12. IFN-γ was quantified in culture supernatants after 5 days (A) or after re-activation for 5 h with PMA/Ionomycin (B); n=9 from three donors. (C) Naïve CD4^+ T cells were labeled with CellTrace Violet (CTV) and activated in L-Arg medium or Ctrl medium. On day 10, proliferating CTV^lo T cells were stained with an antibody to CCR7 and analyzed by flow cytometry; n=15 from three donors. (D) Naïve CD4^+ T cells were activated for 5 days in L-Arg or Ctrl medium in the presence of exogenous IL-2, washed extensively and cultured in Ctrl medium in the absence of IL-2. Shown is the percentage of living T cells as determined by Annexin V staining at different time points after IL-2 withdrawal. One representative experiment out of three performed. (E) Same experiment as in (D). Shown is the difference of living activated CD4^+ and CD8^+ T cells 5 days after withdrawal of IL-2; n=46, from sixteen donors (CD4^+ T cells); n=13, from four donors (CD8^+ T cells). […] (K) Effect of norNOHA and BEC on proliferation of CTV-labeled naïve T cells measured 72 h after activation. *p<0.05, **p<0.01, ***p<0.001, ****p<0.0001 (Student's t-test).

Turning to `N=C(N)NCCC[C@H](N)C(=O)O` [L-arginine], in the test with human naïve CD4+ T cells [1], the “Intracellular arginine levels compared to controls” value is given as 1.5-2.5 fold and the “Intracellular ornithine levels compared to controls” value was 1.5-2.5 fold. Further, the “time of addition after T cell activation at which most effective on survival” value with activated CD4+ T cells (L-Arg 3 mM added at indicated time points) is no more than 48 h. In addition, the “survival of activated CD4+ T cells in the absence of exogenous cytokines” value in the test with activated CD4+ T cells (metabolites 3 mM, except for spermidine 0.1 mM, 5 days after IL-2 withdrawal) is “significantly increased”. For the same compound, in the test with B16.OVA melanoma, the “anti-tumor response of OT-I T cells primed in vivo” value was “superior in mediating an anti-tumor response”. In addition, the “survival capacity of OT-I T cells in vivo” value in the test with OT-I T cells is “higher survival capacity”. Besides, the nitric oxide result with human naïve CD4+ T cells [2] is “did not increase”. Also, the “fraction of proliferating CCR7+ T cells” value in the test on human naïve CD4+ T cells [3] is recorded as “higher fraction”.
